From the NIST ThermoML archive (doi:10.1007/s10765-012-1373-z)

Conditions: Liquid; for mass density: Buoyancy - hydrostatic balance; for viscosity: Falling or rolling sphere viscometry

CCCCCCC [heptane]
Conditions	mass density [kg/m3]	viscosity [mPa·s]
298.15 K, 98 kPa	679.99	0.396
298.15 K, 24510 kPa	702.85	0.4923
298.15 K, 49030 kPa	718.61	0.602
298.15 K, 98060 kPa	741.52	0.8489
298.15 K, 147100 kPa	760.47	1.137
298.15 K, 196130 kPa	780.16	1.493
298.15 K, 245160 kPa	792.15	1.91
303.15 K, 98 kPa	674.98	0.373
303.15 K, 24510 kPa	697.11	0.4737
303.15 K, 49030 kPa	713.79	0.5696
303.15 K, 98060 kPa	739.05	0.8037
303.15 K, 147100 kPa	759.49	1.071
303.15 K, 196130 kPa	777.85	1.389
303.15 K, 245160 kPa	789.56	1.744
323.11 K, 49030 kPa	701.18	0.4816
323.13 K, 24510 kPa	680.94	0.3966
323.2 K, 98060 kPa	731.08	0.6613
323.2 K, 147100 kPa	749.97	0.87
323.21 K, 196130 kPa	768.38	1.112
323.25 K, 98 kPa	659.16	0.3107
323.25 K, 245160 kPa	783.33	1.378
362.8 K, 147100 kPa	731.67	0.6488
362.83 K, 98060 kPa	709.5	0.4956
362.85 K, 49030 kPa	675.9	0.3626
362.87 K, 196130 kPa	752.22	0.8089
362.92 K, 98 kPa	622.63	0.2146
362.98 K, 245160 kPa	769.76	0.9926
363.07 K, 24510 kPa	654.31	0.2937
391.93 K, 147100 kPa	717.73	0.531
392 K, 196130 kPa	739.92	0.6621
392 K, 245160 kPa	759.27	0.8047
392.04 K, 98060 kPa	696.22	0.4119
393.01 K, 24510 kPa	634.69	0.2366
393.14 K, 49030 kPa	657.93	0.2965
422.17 K, 196130 kPa	729	0.5591
422.24 K, 98060 kPa	679.62	0.3479
422.26 K, 147100 kPa	704.75	0.4464
422.58 K, 24510 kPa	611.28	0.1951
422.6 K, 49030 kPa	638.89	0.2476
423.04 K, 245160 kPa	748.46	0.6699
452.91 K, 245160 kPa	734.45	0.577
453.04 K, 196130 kPa	716.18	0.4784
453.1 K, 147100 kPa	689.71	0.3883
453.16 K, 98060 kPa	666.38	0.3007
453.24 K, 49030 kPa	621.56	0.2134
453.4 K, 24510 kPa	589.05	0.1668
470.1 K, 49030 kPa	611.78	0.2021
470.19 K, 24510 kPa	574.55	0.1568
470.19 K, 98060 kPa	658.7	0.2858
470.19 K, 147100 kPa	685.13	0.3672
470.57 K, 196130 kPa	709.79	0.4549
470.61 K, 245160 kPa	729.17	0.5475
